Assay results: patent EP4534539A1, “DIDEUTERATED CAMPTOTHECIN DERIVATIVE AND PREPARATION METHOD THEREFOR” (priority 2022, dated 2023)
Where two headings read alike, the source gives them in different places.

How the values were obtained:
HT29 cells = experiment: Inhibitory activity on HT29 cells (MTT); assay type: cell-based, human; settings: for IC50: Homo sapiens, read-out: HT29 IC50
Method: (§1) MDA-MB-468 cells (purchased from ATCC) were cultured in L-15 culture medium (purchased from Sigma-Aldrich), NCI-N87 cells (purchased from ATCC) were cultured in RPMI-1640 culture medium (purchased from Gibco), and HT29 cells (purchased from ATCC) were cultured in McCoy's 5A culture medium (purchased from Gibco), each of which was supplemented with 10% fetal bovine serum and 1% penicillin-streptomycin solution, and placed in a 5% CO2 incubator at 37°C. The cells were seeded in 96-well plates at 3000 cells per well and cultured overnight. Different concentrations of drugs were respectively added, and the cells were placed in a normal incubator (21% O2, 5% CO2, and 74% N2) and cultured for 72 h. 100 µL of culture medium was removed. 10 µL of MTT solution (5 mg/mL) was added. Then the cells were cultured in the incubator for 4 hours. 50 µL of triple combination solution (10% SDS, 5% isobutanol, and 0.012 mol/L HCl) was added. The cells were placed in the incubator overnight. OD values were measured at 540 nm wavelength, and median inhibition concentration IC50 of the drug on tumor cell growth was calculated (n=3).

HCT116 cells = experiment: HCT-116 cell inhibitory activity test (MTT); assay type: cell-based; settings: Homo sapiens, read-out: IC50 Activity
Method: HCT116 cells (purchased from ATCC) were cultured in a 5% CO2 incubator at 37 °C using DMEM culture medium (purchased from Gibco) supplemented with 10% fetal bovine serum and 1% penicillin-streptomycin solution. The cells were seeded in 96-well plates at 3000 cells per well and cultured overnight. Different concentrations of drugs were respectively added, and the cells were placed in a normal incubator (21 % O2, 5% CO2, and 74% N2) and cultured for 72 h. 100 µL of culture medium was removed. 10 µL of MTT solution (5 mg/mL) was added. Then the cells were cultured in the incubator for 4 hours. 50 µL of triple combination solution (10% SDS, 5% isobutanol, and 0.012 mol/L HCl) was added. The cells were placed in the incubator overnight. OD values were measured at 540 nm wavelength, and median inhibition concentration IC50 of the drug on tumor cell growth was calculated (n=3). Compounds with activity designated as "A" provide IC50≤10nM. Compounds with activity designated as "B" provide IC50 of 10 nM to 100 nM. Compounds with activity designated as "C" provide IC50 of 100 nM to 1000 nM. Compounds with activity designated as "D" provide IC50 of 1000 nM to 10000 nM. Titer (nM); Efficacy (IC50).

MDA-MB-468 cells = experiment: Inhibitory activity on MDA-MB-468 cells (MTT); assay type: cell-based; settings: for IC50: Homo sapiens, read-out: MDA-MB-468 IC50
Method: as §1

NCI-N87 cells = experiment: Inhibitory activity on NCI-N87 cells (MTT); assay type: cell-based, human; settings: for IC50: Homo sapiens, read-out: NCI-N87 IC50
Method: as §1

[1] = assay type: in vivo; settings: SD rats, intravenous administration once a day for 7 consecutive days; result in words
Excerpt: The possible toxic reactions and severity thereof of the drug on SD rats were observed after continuous intravenous administration for 7 days. The toxicity of the compound in rodents was preliminarily evaluated. SD rats (Beijing Vital River Laboratory Animal Technology Co., Ltd.) were randomly divided, 6 rats/group, half male and half female, and injected with samples (preparation: 10% DMSO-90% (20% 2-hydroxypropyl-β-cyclodextrin-physiological saline), diluted according to the dose) once a day for 7 consecutive days. Weight and food intake were monitored every two days, and the status of the animals was observed. Blood samples were taken 24 h after the last dose for hematology, blood biochemistry and coagulation indexes.

[2] = Pharmacokinetic test - rats; set-up: species or system SD rats; settings: in vivo, 3 mg/kg, Rat PK, IV, 3 mpk, single injection, plasma; for Vd: read-out: Vz
Method: Experimental objective: To evaluate the pharmacokinetic characteristics of the compound of the present application in rats.
SD rats (Beijing Vital River Laboratory Animal Technology Co., Ltd.) were randomly divided, 6 rats/group, half male and half female, and were injected once with a sample (10% DMSO-90% (20% 2-hydroxypropyl-β-cyclodextrin-physiological saline), diluted according to the dose). Plasma samples were respectively taken before administration, and at 5 min, 30 min, 1 h, 2 h, 4 h, 6 h, 8 h, 10 h, and 24 h after administration. The sample concentration in plasma was determined by LC-MS method, and pharmacokinetic parameters were calculated (see Table 4). Table 4 Pharmacokinetic characteristics of the compound of the present application in SD rats

[3] = Pharmacokinetic test - mice; assay type: in vivo, Balb/c mice; settings: mouse, 3 mg/kg, Mice PK, IV, 3 mpk, single injection, plasma
Method: Experimental objective: To evaluate the pharmacokinetic characteristics of the compound of the present application in mice.
Balb/c mice (purchased from Beijing Vital River) were randomly divided, 12 mice/group, half male and half female, and were injected once with a sample (10% DMSO-90% (20% 2-hydroxypropyl-β-cyclodextrin-physiological saline), diluted according to the dose). Cross samples of plasma were respectively taken before administration, and at 5 min, 30 min, 1 h, 2 h, 4 h, 6 h, 8 h, 10 h, and 24 h after administration. The sample concentration in plasma was determined by LC-MS method, and pharmacokinetic parameters were calculated (see Table 3). Table 3 Pharmacokinetic characteristics of the compound of the present application in mice

SMILES: [2H]C1([2H])OC(=O)[C@](O)(CC)c2cc3n(c(=O)c21)Cc1c-3nc2ccc(O)cc2c1CC [Compound A-9]
- HT29 Inh.max (HT29 cells; HT29 cells, 72 h, MTT): >90%
- IC50 (HT29 cells; HT-29, 72 h): < 10 nM
- IC50 (HCT116 cells; HCT-116, 72 h): < 10 nM
- IC50 (MDA-MB-468 cells; MDA-MB-468, 72 h): < 10 nM
- MDA-MB-468 Inh.max (MDA-MB-468 cells; MDA-MB-468 cells, 72 h, MTT): >80%
- IC50 (NCI-N87 cells; NCI-N87, 72 h): < 10 nM
- NCI-N87 Inh.max (NCI-N87 cells; NCI-N87 cells, 72 h, MTT): >80%
- safety [1]: better safety
- AUC(0-inf) [2]: 99.5 ng·h/mL
- Cmax [2]: 288 ng/mL
- clearance [2]: 167 mL/min/kg
- half-life [2]: 81 min
- Vd [2]: 19.5 L/kg

SMILES: [2H]C1([2H])OC(=O)[C@](O)(CC)c2cc3n(c(=O)c21)Cc1c-3nc2cc(F)c(C)c3c2c1[C@@H](N)CC3 [Compound A-11]
- HT29 Inh.max (HT29 cells; HT29 cells, 72 h, MTT): >90%
- IC50 (HT29 cells; HT-29, HT29 cells, 72 h, MTT, n=3): < 10 nM
- IC50 (HCT116 cells; HCT-116, HCT116 cells, 72 h, MTT, n=3): < 10 nM
- AUC(0-inf) [3]: 321 ng·h/mL
- Cmax [3]: 902 ng/mL
- clearance [3]: 156 mL/min/kg
- half-life [3]: 71.4 min
- Vd ([3]; read-out: Vz): 16 L/kg
- IC50 (MDA-MB-468 cells; MDA-MB-468 cells, 72 h, MTT, n=3): < 10 nM
- MDA-MB-468 Inh.max (MDA-MB-468 cells; MDA-MB-468 cells, 72 h, MTT): >80%
- IC50 (NCI-N87 cells; NCI-N87 cells, 72 h, MTT, n=3): < 10 nM
- NCI-N87 Inh.max (NCI-N87 cells; NCI-N87 cells, 72 h, MTT): >70%
- safety [1]: better safety
- AUC(0-inf) [2]: 135 ng·h/mL
- Cmax [2]: 215 ng/mL
- clearance [2]: 381 mL/min/kg
- half-life [2]: 54.6 min
- Vd [2]: 30.1 L/kg
